# Source: US20170071976A1, “PHARMACEUTICAL SOLUTION HAVING ANTI-TUMOR EFFECT-ENHANCING AND TOXICITY-REDUCING EFFECT, AND PHARMACEUTICAL COMPOSITION COMPRISING SAME” (priority 2014, published 2017)
# Experiments:
# [1] = system: human colon cancer HCT-116 cells inoculated into the peritoneal cavity; test: Survival of nude mice bearing HCT-116 cells, 42° C. intraperitoneal retention lavage with hydroxyethyl starch or sodium chloride deuterium oxide solution and 5-FU; assay type: in vivo; conditions: 42° C. NS 10 ml/kg + 5-FU 20 mg/kg, i.p. lavage x 5
# Procedure: Comparison of survival time of nude mice bearing human colon cancer HCT-116 cells upon 42° C. hyperthermic intraperitoneal retention lavage using a hydroxyethyl starch deuterium oxide solution in combination with 5-FU and using a sodium chloride deuterium oxide solution in combination with 5-FU.
# Animal: 4 to 5 week-aged male nude mice, provided by Shanghai SIPPR-BK Laboratory Animal Co. Ltd.
# Cell lines: human colon cancer cell line HCT-116 was provided by NANJING KEYGEN BIOTECH. CO., LTD.
# Modeling: 0.2 ml suspension of HCT-116 cancer cells containing 1×10^7 cells/ml (2×10^6 cells in total) was inoculated into the peritoneal cavity of the nude mice.
# Grouping and dosing: the mouse model was established 7 to 8 days after inoculation into the nude mice, and the mice were randomized with 18 animals/group.
# 5-FU was separately dissolved in the hydroxyethyl starch deuterium oxide solution at 42° C., and in the sodium chloride deuterium oxide solution at 42° C., for intraperitoneal lavage of tumor-bearing mice.
# 1). […]
# The peritoneal cavity of nude mice was lavaged with the above compositions which were retained for 20 min in the peritoneal cavity after being introduced, which was performed once a day for 5 successive times. The body weight and abdomen circumference of the nude mice were measured on each day before administration of the drugs, and the daily living status of mice was observed. […]
# [2] = system: PANC-1 pancreatic cancer cell line; test: MTT assay: in vitro inhibition of growth by deuterium oxide; assay type: cell-based, human
# Procedure: (§1) Studies of in vitro inhibition of growth of human tumor cells by deuterium oxide, by the MTT (3-(4,5-dimethylthiazol-2-yl)-2,5-diphenyltetrazolium bromide) assay
# (§2) 1. A bottle of cells that had been cultured for 3 to 4 days and were in the exponential phase was taken, a suitable amount of 0.25% Trypsin-EDTA solution was added thereto to detach the cells from the wall, and the cells were suspended in 10 ml RPMI 1640 medium containing 10% FBS. 2. The cells were counted on a hemocytometer, and generally viable cells should be not less than 97%. 3. The cell suspension was diluted with a complete medium to prepare a suspension containing 1×10^4 cells/ml. 4. To each well of a 12-well culture plate, 300 μl cell suspension was added. The addition of cells should be finished within 4 hours. The plate was placed in an incubator at 37° C. and 5% CO2 for 24 hours. 5. Powdery RPMI Medium 1640 (Gibco, USA, Cat#: 31800-022) was dissolved in deuterium oxide (provided by Cambridge Isotope Laboratories, Inc. (US)) to prepare a cell culture medium (unless particularly specified, all culture media used in the Examples hereinafter were prepared from powdery RPMI Medium 1640 and deuterium oxide) at a concentration shown in Table 1, which was added into the cell culture plate. 6. The cell culture plate was incubated for 3 days in an incubator at 37° C., 5% CO2 and 100% humidity. 7. A solution of 1 mg/ml MTT was prepared in a serum-free RPMI1640 medium, added to the plate at 200 μl/well, and incubated at 37° C. for 4 hours, to allow MTT to be reduced to formazan. 8. The supernatant was removed by pipetting, 200 μl DMSO was added to dissolve formazan, and the solution was well mixed on a platform shaker. 9. Absorbance of each well was measured on an ELISA reader with a detection wavelength of 570 nm and a reference wavelength of 450 nm. 10. The assay was repeated one more time.
# (§3) Calculation of results: Inhibition of growth of tumor cells by deuterium oxide was calculated using tumor cells treated with sodium chloride physiological solution as a control group. Inhibition of cell growth was plotted against amounts of deuterium oxide to obtain a dose response curve, from which the half maximal inhibitory concentration (IC50) of deuterium oxide was derived.
# (§4) Inhibition of tumor cell growth (%)=(1−OD test/OD control)×100%
# [3] = system: HeLa cervical cancer cell line; test: as above; assay type: cell-based, human
# Procedure: as §1, §2, §3, §4
# [4] = system: adult human; test: Theoretical extrapolation of the toxic deuterium oxide body content to an adult human; conditions: adult human of 60 kg body weight
# Description: Deuterium oxide (heavy water, D2O, Mw: 20.03, CAS No. 7789-20-0) can be isolated from seawater. A normal body of adult human contains about 5 g deuterium oxide. […] Based on this experimental result, theoretically, assuming the body weight of an adult human is 60 kg, deuterium oxide that reaches 18 kg in the body starts to cause toxicity. However, it is actually impossible for a human body to have 18 kg deuterium oxide. […] Therefore, deuterium oxide should be a non-toxic substance [D. M. Czajka: Am. J. Physiol.
smiles,measurement,setting,value
"O=c1[nH]cc(F)c(=O)[nH]1 [Example 5-FU, 5-fluorouracil]",T/C(%),[1],138.7%
same,MST,[1]; control 12.4 ± 2.9,17.2 ± 2.2 days
[2H]O[2H] [Deuterium oxide],Inhibition of growth (%),[2]; deuterium oxide 1.2% (v/v),7.37%
same,Inhibition of growth (%),[2]; deuterium oxide 2.5% (v/v),13.88%
same,Inhibition of growth (%),[2]; deuterium oxide 5% (v/v),14.41%
same,Inhibition of growth (%),[2]; deuterium oxide 10% (v/v),8.43%
same,Inhibition of growth (%),[2]; deuterium oxide 20% (v/v),9.06%
same,Inhibition of growth (%),[2]; deuterium oxide 30% (v/v),17.81%
same,Inhibition of growth (%),[2]; deuterium oxide 40% (v/v),26.73%
same,Inhibition of growth (%),[2]; deuterium oxide 50% (v/v),31.62%
same,Inhibition of growth (%),[2]; deuterium oxide 60% (v/v),50.31%
same,Inhibition of growth (%),[2]; deuterium oxide 70% (v/v),57.29%
same,Inhibition of growth (%),[2]; deuterium oxide 80% (v/v),79.05%
same,IC10,[2]; expressed in v/v %,3.03%
same,IC50,[2]; expressed in v/v %,65.38%
same,Inhibition of growth (%),[3]; deuterium oxide 1.2% (v/v),12.11%
same,Inhibition of growth (%),[3]; deuterium oxide 2.5% (v/v),14.44%
same,Inhibition of growth (%),[3]; deuterium oxide 5% (v/v),16.25%
same,Inhibition of growth (%),[3]; deuterium oxide 10% (v/v),28.87%
same,Inhibition of growth (%),[3]; deuterium oxide 20% (v/v),36.12%
same,Inhibition of growth (%),[3]; deuterium oxide 30% (v/v),45.41%
same,Inhibition of growth (%),[3]; deuterium oxide 40% (v/v),58.26%
same,Inhibition of growth (%),[3]; deuterium oxide 50% (v/v),65.63%
same,Inhibition of growth (%),[3]; deuterium oxide 60% (v/v),73.32%
same,Inhibition of growth (%),[3]; deuterium oxide 70% (v/v),85.82%
same,Inhibition of growth (%),[3]; deuterium oxide 80% (v/v),90.11%
same,IC10,[3]; expressed in v/v %,1.8%
same,IC50,[3]; expressed in v/v %,68.33%
same,amount in the body that starts to cause toxicity,[4],18 kg
